Measured values from US20210085640A1, “ACYLATED CATECHIN POLYPHENOLS AND METHODS OF THEIR USE FOR THE TREATMENT OF CANCER” (Flagship Pioneering Innovations V, Inc., priority 2018, published 2021).

Test system: naïve CD4^+ T cells
Test: Human Regulatory T Cell Differentiation Assay
Assay type: cell-based
Details: 6 days
Procedure: Peripheral blood mononuclear cells (PBMCs) from whole blood donated by health volunteers were separated by Ficoll-Paque gradient centrifugation and naïve CD4^+ T cells were subsequently isolated using magnet beads (EasySep™ Human Naïve CD4^+ T Cell Isolation Kit, Cambridge, Mass.). For regulatory T cell (Treg) differentiation assay, naïve CD4^+ T cells were cultured (1-10×10^4 cells) in CTS OpTmizer medium for 6 days and stimulated with 5 ng/ml TGF-β, 100 U/ml IL-2, and ImmunoCult™ Human […] T Cell Activator; Stemcell #10990) with/without Compounds. Cell viability was determined using a viability dye (eBioscience Fixable Viability Dye eFluor 780: ThermoFisher 65-0865-14) at 1:500 dilution. The cells were gated for Treg, defined as Live, CD11c^−, CD14^−, CD19^−, CD8^−, CD4^+, CD3^+, CD25^+, FOXP3^+. Percent (%) Tregs were calculated as percentage of CD4^+, CD25^+, FOXP3^+ cells over total CD4^+ T cells. Statistical analysis was performed with GraphPad Prism Software Using One-Way ANOVA.

Structure (SMILES): CC(O)CC(=O)[O-].[Na+] (stereo not shown) [Sodium BHB]
- Cell viability % DMSO (2 mM): = (90% ≥ ≤110%: =)
- Treg induction % DMSO (2 mM): + (110% > ≤130%: +)
- Cell viability % DMSO (20 mM): − (<90%: −)
- Treg induction % DMSO (20 mM): = (90% ≥ ≤110%: =)
